The record followed here is ChEMBL document CHEMBL5724914, “Linking interpersonal differences in gut microbiota composition and drug biotransformation activity” (2024).

For series [1] the following is noted: human gut metagenome, 24 h, 2 µM.
The conditions of series [2]: human gut metagenome, 24 h, 2 µM. The source holds these as a separate data set.
For series [3] the following is noted: human gut metagenome, 24 h, 2 µM. This is another data set of the same source.
For series [4] the following is noted: human gut metagenome, 24 h, 2 µM. This is another data set of the same source.
For series [5] the following is noted: human gut metagenome, 24 h, 2 µM. This is another data set of the same source.
The conditions of series [6]: human gut metagenome, 24 h, 2 µM. This is another data set of the same source.
For series [7] the following is noted: human gut metagenome, 24 h, 2 µM. This is another data set of the same source.
The nature of series [8]: The drug is tested on Z-016 corresponding to mouse gut metagenome with ENA study accession number: PRJEB37062 and ENA sample accession number: ERS12561815 for biotransformation under anaerobic condition. The drug concentrations were measured over 9 timepoints collected between 0 and 24 hours of incubation by liquid-chromatography-coupled mass spectrometry (LC–MS). The following applies: 2 µM.

For series [9] the following is noted: human gut metagenome, 24 h, 2 µM. The source holds these as a separate data set.
For series [10] the following is noted: human gut metagenome, 24 h, 2 µM. The source holds these as a separate data set.
A short description of series [11]: The drug is tested on WLS-220 corresponding to human gut metagenome with ENA study accession number: PRJEB37062 and ENA sample accession number: ERS12561769 for biotransformation under anaerobic condition. The drug concentrations were measured over 9 timepoints collected between 0 and 24 hours of incubation by liquid-chromatography-coupled mass spectrometry (LC–MS). The following applies: 2 µM.

The nature of series [12]: The drug is tested on WLS-027 corresponding to human gut metagenome with ENA study accession number: PRJEB37062 and ENA sample accession number: ERS12561744 for biotransformation under anaerobic condition. The drug concentrations were measured over 9 timepoints collected between 0 and 24 hours of incubation by liquid-chromatography-coupled mass spectrometry (LC–MS). The following applies: 2 µM.

Series [13] is described as follows: The drug is tested on WLS-350 corresponding to human gut metagenome with ENA study accession number: PRJEB37062 and ENA sample accession number: ERS12561789 for biotransformation under anaerobic condition. The drug concentrations were measured over 9 timepoints collected between 0 and 24 hours of incubation by liquid-chromatography-coupled mass spectrometry (LC–MS). The following applies: 2 µM.

Series [14] is described as follows: The drug is tested on Z-006 corresponding to mouse gut metagenome with ENA study accession number: PRJEB37062 and ENA sample accession number: ERS12561806 for biotransformation under anaerobic condition. The drug concentrations were measured over 9 timepoints collected between 0 and 24 hours of incubation by liquid-chromatography-coupled mass spectrometry (LC–MS). The following applies: 2 µM.

A short description of series [15]: The drug is tested on WLS-038 corresponding to human gut metagenome with ENA study accession number: PRJEB37062 and ENA sample accession number: ERS12561745 for biotransformation under anaerobic condition. The drug concentrations were measured over 9 timepoints collected between 0 and 24 hours of incubation by liquid-chromatography-coupled mass spectrometry (LC–MS). The following applies: 2 µM.

Series [16] in a line: The drug is tested on WLS-170 corresponding to human gut metagenome with ENA study accession number: PRJEB37062 and ENA sample accession number: ERS12561762 for biotransformation under anaerobic condition. The drug concentrations were measured over 9 timepoints collected between 0 and 24 hours of incubation by liquid-chromatography-coupled mass spectrometry (LC–MS). The following applies: 2 µM.

Series [17] in a line: The drug is tested on Z-024 corresponding to pig gut metagenome with ENA study accession number: PRJEB37062 and ENA sample accession number: ERS12561823 for biotransformation under anaerobic condition. The drug concentrations were measured over 9 timepoints collected between 0 and 24 hours of incubation by liquid-chromatography-coupled mass spectrometry (LC–MS). The following applies: 2 µM.

The nature of series [18]: The drug is tested on WLS-073 corresponding to human gut metagenome with ENA study accession number: PRJEB37062 and ENA sample accession number: ERS12561749 for biotransformation under anaerobic condition. The drug concentrations were measured over 9 timepoints collected between 0 and 24 hours of incubation by liquid-chromatography-coupled mass spectrometry (LC–MS). The following applies: 2 µM.

A short description of series [19]: The drug is tested on WLS-010 corresponding to human gut metagenome with ENA study accession number: PRJEB37062 and ENA sample accession number: ERS12561743 for biotransformation under anaerobic condition. The drug concentrations were measured over 9 timepoints collected between 0 and 24 hours of incubation by liquid-chromatography-coupled mass spectrometry (LC–MS). The following applies: 2 µM.

Series [20] is described as follows: The drug is tested on Z-021 corresponding to metagenome with ENA study accession number: PRJEB37062 and ENA sample accession number: ERS12561820 for biotransformation under anaerobic condition. The drug concentrations were measured over 9 timepoints collected between 0 and 24 hours of incubation by liquid-chromatography-coupled mass spectrometry (LC–MS). The following applies: 2 µM.
Also: call rule not given here.

Regarding `CC(C)(C)NCC(O)COc1cccc2c1CC(O)C(O)C2` (stereo not given) [NADOLOL], the “Bacterial Biotransformation” value is reported as “Compound NOT metabolized” in series [1]; “Compound metabolized” in [2]; “Compound metabolized” in series [3]; “Compound NOT metabolized” in series [4]; “Compound NOT metabolized” in series [5]; “Compound NOT metabolized” in series [6]. In addition, the “Bacterial Biotransformation” value in series [7] was “Compound metabolized”; in [8], “Compound NOT metabolized”; in [9] it was “Compound NOT metabolized”; in series [10], “Compound NOT metabolized”; in series [11] it was “Compound NOT metabolized”; in series [12] it was “Compound NOT metabolized”. The “Bacterial Biotransformation” value in series [13] was “Compound metabolized”; in [14], “Compound NOT metabolized”; in series [15], “Compound NOT metabolized”; in [16], “Compound metabolized”; in series [17], “Compound NOT metabolized”; in [18] it was “Compound NOT metabolized”. For the same molecule, the “Bacterial Biotransformation” value in series [19] and in [20] was “Compound NOT metabolized” throughout.

Turning to `CC(CCc1ccccc1)NCC(O)c1ccc(O)c(C(N)=O)c1` (stereo not given) [LABETALOL], the “Bacterial Biotransformation” value in series [1] is on record as “Compound NOT metabolized”; in series [2], “Compound NOT metabolized”; in series [3], “Compound NOT metabolized”; in series [4], “Compound NOT metabolized”; in series [5], “Compound NOT metabolized”; in series [6] it was “Compound metabolized”. The “Bacterial Biotransformation” value in series [7] was “Compound metabolized”; in series [8] it was “Compound NOT metabolized”; in series [9] it was “Compound NOT metabolized”; in series [10] it was “Compound NOT metabolized”; in series [11], “Compound NOT metabolized”; in series [12], “Compound NOT metabolized”. Also, the “Bacterial Biotransformation” value in [13] is “Compound NOT metabolized”; in series [14], “Compound NOT metabolized”; in series [15] it was “Compound NOT metabolized”; in series [16] it was “Compound NOT metabolized”; in series [17], “Compound metabolized”; in series [18], “Compound NOT metabolized”. The “Bacterial Biotransformation” value in series [19] and in series [20] was “Compound NOT metabolized” each time.

With `Br.CN1CCC[C@@H]1Cc1c[nH]c2ccc(CCS(=O)(=O)c3ccccc3)cc12` [ELETRIPTAN HYDROBROMIDE], the “Bacterial Biotransformation” value in series [1] is recorded as “Compound NOT metabolized”; in series [2] it was “Compound NOT metabolized”; in series [3], “Compound metabolized”; in series [4] it was “Compound NOT metabolized”; in series [5], “Compound metabolized”; in series [6], “Compound metabolized”. The “Bacterial Biotransformation” value was “Compound metabolized” in [7]; “Compound NOT metabolized” in [8]; “Compound metabolized” in [9]; “Compound metabolized” in series [10]; “Compound metabolized” in series [11]; “Compound NOT metabolized” in series [12]. The “Bacterial Biotransformation” value is “Compound NOT metabolized” in series [13]; “Compound NOT metabolized” in series [14]; “Compound NOT metabolized” in [15]; “Compound metabolized” in series [16]; “Compound NOT metabolized” in series [17]; “Compound metabolized” in series [18]. Also, the “Bacterial Biotransformation” value in series [19] is given as “Compound metabolized”; in [20], “Compound NOT metabolized”.
